Reference: ChEMBL document CHEMBL1201862, “PubChem BioAssay data set” (2004)
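How tested: cells in 96-well plates exposed to compound for 48 hours at five concentrations. GI50 marks 50% less growth.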 Active and inactive are the calls of the source. No stated cut-off is given here; in the data, active = GI50 up to about 1.1 µM and inactive = higher.

What was measured:
Test in all cases: inhibition of tumour cell growth, NCI panel, 48 h
[1] = test system: 786-0
[2] = test system: ACHN
[3] = test system: CAKI-1
[4] = test system: HOP-62
[5] = test system: IGROV-1
[6] = test system: K562
[7] = test system: KM-20L2
[8] = test system: KM12
[9] = test system: M14
[10] = test system: NCI-H522
[11] = test system: OVCAR-4
[12] = test system: RPMI-8226
[13] = test system: RXF 393
[14] = test system: SF-268
[15] = test system: SNB-75
[16] = test system: TK-10
[17] = test system: HCC 2998
[18] = test system: HCT-116
[19] = test system: NCI/ADR-RES
[20] = test system: T47D

Compound	GI50 [1]	GI50 [2]	GI50 [3]	GI50 [4]	GI50 [5]	GI50 [6]	GI50 [7]	GI50 [8]	GI50 [9]	GI50 [10]	GI50 [11]	GI50 [12]	GI50 [13]	GI50 [14]	GI50 [15]	GI50 [16]	GI50 [17]	GI50 [18]	GI50 [19]	GI50 [20]
C=CCN(N=O)C(=O)N(CCCC(NC(C)=O)C(=O)NCc1ccccc1)Cc1ccccc1 (stereo not given)	80.5 µM (inactive)	54.7 µM (inactive)	30.5 µM (inactive)	> 100 µM (inactive)	> 100 µM (inactive)	37 µM (inactive)	42.2 µM (inactive)	42.4 µM (inactive)	38.4 µM (inactive)	21.4 µM (inactive)	36.1 µM (inactive)	18.2 µM (inactive)	42.2 µM (inactive)	62.2 µM (inactive)	39 µM (inactive)	87.1 µM (inactive)				
COc1ccccc1NC(=O)CC(=O)NNCC(=O)Nc1nnc(-c2ccccc2)o1	> 100 µM (inactive)	> 100 µM (inactive)	> 100 µM (inactive)	> 100 µM (inactive)	> 100 µM (inactive)	> 100 µM (inactive)	> 100 µM (inactive)	> 100 µM (inactive)	> 100 µM (inactive)	> 100 µM (inactive)	> 100 µM (inactive)	> 100 µM (inactive)		> 100 µM (inactive)	> 100 µM (inactive)	> 100 µM (inactive)	> 100 µM (inactive)	> 100 µM (inactive)		
CCN(CC)c1ccc(/N=C2/C=CC(=C(C#N)C#N)c3ccccc32)c(C)c1	2.22 µM (inactive)	2.59 µM (inactive)	1.72 µM (inactive)	2.2 µM (inactive)	2.73 µM (inactive)	1.56 µM (inactive)	1.95 µM (inactive)		1.48 µM (inactive)		1.88 µM (inactive)	1.38 µM (inactive)	1.08 µM (active)		1.33 µM (inactive)	3.25 µM (inactive)		1.95 µM (inactive)		
COc1ccc(NC(=O)NS(=O)(=O)c2ccc(C)cc2)nn1	> 100 µM (inactive)	> 100 µM (inactive)	> 100 µM (inactive)	> 100 µM (inactive)	> 100 µM (inactive)	> 100 µM (inactive)	> 100 µM (inactive)	> 100 µM (inactive)	> 100 µM (inactive)	> 100 µM (inactive)	> 100 µM (inactive)	> 100 µM (inactive)		> 100 µM (inactive)	> 100 µM (inactive)	> 100 µM (inactive)	> 100 µM (inactive)			
c1ccc2c(c1)Sc1ccccc1N2C1CN2CCC1CC2 (stereo not given)	13 µM (inactive)	16.9 µM (inactive)	17.2 µM (inactive)	12.9 µM (inactive)	18.9 µM (inactive)	13.7 µM (inactive)	15.2 µM (inactive)	15.2 µM (inactive)		18.8 µM (inactive)	17.7 µM (inactive)	23.1 µM (inactive)		16.4 µM (inactive)	6 µM (inactive)	14 µM (inactive)	14.5 µM (inactive)	15.5 µM (inactive)		
CC(=O)NC(ON1C(=O)COc2ccccc21)C(Cl)(Cl)Cl (stereo not given)	> 100 µM (inactive)	> 100 µM (inactive)	> 100 µM (inactive)	> 100 µM (inactive)	> 100 µM (inactive)	> 100 µM (inactive)	> 100 µM (inactive)	> 100 µM (inactive)	> 100 µM (inactive)	> 100 µM (inactive)	> 100 µM (inactive)	> 100 µM (inactive)		> 100 µM (inactive)	> 100 µM (inactive)	> 100 µM (inactive)	> 100 µM (inactive)	> 100 µM (inactive)		
CCOc1ccc(/N=C/c2cccc3cccnc23)cc1	> 100 µM (inactive)	> 100 µM (inactive)	> 100 µM (inactive)	> 100 µM (inactive)	> 100 µM (inactive)	20 µM (inactive)	> 100 µM (inactive)	39.8 µM (inactive)	44.7 µM (inactive)		> 100 µM (inactive)	30.3 µM (inactive)	> 100 µM (inactive)	> 100 µM (inactive)	> 100 µM (inactive)	> 100 µM (inactive)	> 100 µM (inactive)	43.8 µM (inactive)		
CSc1nc(-c2ccccc2)nc(N2CCOCC2)[s+]1	> 100 µM (inactive)	> 100 µM (inactive)		> 100 µM (inactive)	> 100 µM (inactive)	37.6 µM (inactive)	> 100 µM (inactive)	> 100 µM (inactive)	> 100 µM (inactive)	32.8 µM (inactive)	> 100 µM (inactive)		21.3 µM (inactive)	> 100 µM (inactive)	> 100 µM (inactive)	> 100 µM (inactive)	> 100 µM (inactive)	> 100 µM (inactive)		
C=CCN(N=O)C(=O)N(CCC)CCCC(NC(C)=O)C(=O)NCc1ccccc1 (stereo not given)	> 100 µM (inactive)	> 100 µM (inactive)	> 100 µM (inactive)	> 100 µM (inactive)	> 100 µM (inactive)	> 100 µM (inactive)	> 100 µM (inactive)	> 100 µM (inactive)	> 100 µM (inactive)	> 100 µM (inactive)	> 100 µM (inactive)	> 100 µM (inactive)	> 100 µM (inactive)	> 100 µM (inactive)	> 100 µM (inactive)	> 100 µM (inactive)				
CN(C)CCNC(=O)c1ccccc1Nc1c(Cl)cccc1Cl	4.62 µM (inactive)	8.75 µM (inactive)		13.7 µM (inactive)	18.2 µM (inactive)	13.4 µM (inactive)	10.9 µM (inactive)		15.4 µM (inactive)		14.6 µM (inactive)	11.9 µM (inactive)	1.69 µM (inactive)	16.2 µM (inactive)	2.07 µM (inactive)	8.13 µM (inactive)	10.6 µM (inactive)	7.93 µM (inactive)		
Cc1cc(Cl)ccc1NC(=O)CCCC(=O)C1CCC/C1=N\NC(=O)CC#N (stereo not given)	> 100 µM (inactive)	> 100 µM (inactive)	> 100 µM (inactive)		> 100 µM (inactive)	> 100 µM (inactive)	> 100 µM (inactive)	> 100 µM (inactive)	> 100 µM (inactive)	> 100 µM (inactive)	> 100 µM (inactive)	75.3 µM (inactive)		> 100 µM (inactive)	> 100 µM (inactive)	> 100 µM (inactive)		> 100 µM (inactive)		
Oc1ccccc1/C=N/N1C(=S)N(c2ccccc2)C(=N\c2ccccc2)/C1=N/c1ccccc1	2.72 µM (inactive)	2.41 µM (inactive)	12.4 µM (inactive)	9.35 µM (inactive)	14 µM (inactive)	28.6 µM (inactive)		46.3 µM (inactive)	15.1 µM (inactive)	3.89 µM (inactive)	1.27 µM (inactive)	> 35.6 µM (inactive)	5.41 µM (inactive)	12.1 µM (inactive)	3.21 µM (inactive)	8.28 µM (inactive)	23.1 µM (inactive)	11.6 µM (inactive)	13.6 µM (inactive)	15.9 µM (inactive)
COc1ccc2c(c1)[n+]([O-])c(-c1ccc(Br)cc1)c(N)[n+]2[O-]	78 µM (inactive)	47.8 µM (inactive)	51.5 µM (inactive)	88.3 µM (inactive)	43.8 µM (inactive)	39.2 µM (inactive)	34.5 µM (inactive)	58.5 µM (inactive)		15.6 µM (inactive)	35.6 µM (inactive)		34.6 µM (inactive)	39.4 µM (inactive)	63.1 µM (inactive)			30.6 µM (inactive)		
Nc1c(C(=O)c2ccc(Cl)cc2)[nH]c(NCc2ccccc2)c1C(=S)Nc1ccccc1	1.72 µM (inactive)	2.28 µM (inactive)	5.2 µM (inactive)	3.67 µM (inactive)	2.37 µM (inactive)	2.08 µM (inactive)		1.67 µM (inactive)	1.96 µM (inactive)	1.82 µM (inactive)	1.66 µM (inactive)	1.79 µM (inactive)	1.79 µM (inactive)	3.03 µM (inactive)	1.71 µM (inactive)	2.09 µM (inactive)	0.372 µM (active)	1.83 µM (inactive)	7.83 µM (inactive)	3.76 µM (inactive)
COc1ccc(-c2c(CN3CCOCC3)sc3nc4ccccc4n23)cc1	17.2 µM (inactive)	36.6 µM (inactive)	28.5 µM (inactive)	31 µM (inactive)	8.09 µM (inactive)	3.31 µM (inactive)		9.48 µM (inactive)	7.53 µM (inactive)	2.58 µM (inactive)	47.6 µM (inactive)	5.51 µM (inactive)	8.55 µM (inactive)	18.5 µM (inactive)	14.3 µM (inactive)	58.6 µM (inactive)	19 µM (inactive)	9.84 µM (inactive)	4.92 µM (inactive)	18 µM (inactive)
O=C1NC(S(=O)(=O)O)=NNC12c1ccccc1-c1ccccc12	> 10 µM (inactive)	> 10 µM (inactive)	> 10 µM (inactive)	> 10 µM (inactive)	> 10 µM (inactive)	> 10 µM (inactive)		> 10 µM (inactive)	> 10 µM (inactive)	> 10 µM (inactive)	> 10 µM (inactive)	> 10 µM (inactive)	> 10 µM (inactive)	> 10 µM (inactive)	> 10 µM (inactive)	> 10 µM (inactive)	> 10 µM (inactive)	> 10 µM (inactive)	> 10 µM (inactive)	4.16 µM (inactive)
